In data set [1] the target is T1, beta-catenin-B-cell lymphoma 9 protein complex (Homo sapiens, UniProt P35222).
T1 sequence (P35222 whole entry): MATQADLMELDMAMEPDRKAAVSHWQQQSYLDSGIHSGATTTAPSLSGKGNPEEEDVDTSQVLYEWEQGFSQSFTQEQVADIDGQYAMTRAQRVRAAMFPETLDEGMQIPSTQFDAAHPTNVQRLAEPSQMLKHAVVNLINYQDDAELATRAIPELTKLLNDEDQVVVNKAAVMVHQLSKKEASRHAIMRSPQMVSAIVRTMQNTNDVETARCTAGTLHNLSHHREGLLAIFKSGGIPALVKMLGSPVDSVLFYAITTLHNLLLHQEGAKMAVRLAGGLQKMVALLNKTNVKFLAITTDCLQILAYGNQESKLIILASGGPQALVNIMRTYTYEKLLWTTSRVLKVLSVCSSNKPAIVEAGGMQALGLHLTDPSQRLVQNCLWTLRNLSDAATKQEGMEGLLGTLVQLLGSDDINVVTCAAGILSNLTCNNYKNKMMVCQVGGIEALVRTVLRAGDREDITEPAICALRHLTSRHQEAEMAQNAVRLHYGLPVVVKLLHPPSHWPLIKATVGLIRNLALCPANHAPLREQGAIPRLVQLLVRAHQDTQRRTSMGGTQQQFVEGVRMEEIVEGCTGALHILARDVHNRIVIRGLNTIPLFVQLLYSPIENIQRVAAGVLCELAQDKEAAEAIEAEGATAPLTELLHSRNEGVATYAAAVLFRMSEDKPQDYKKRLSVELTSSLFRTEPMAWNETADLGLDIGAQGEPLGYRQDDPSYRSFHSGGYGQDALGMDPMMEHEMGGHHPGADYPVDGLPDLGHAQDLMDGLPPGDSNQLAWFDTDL
T1 sequence (O00512 whole entry): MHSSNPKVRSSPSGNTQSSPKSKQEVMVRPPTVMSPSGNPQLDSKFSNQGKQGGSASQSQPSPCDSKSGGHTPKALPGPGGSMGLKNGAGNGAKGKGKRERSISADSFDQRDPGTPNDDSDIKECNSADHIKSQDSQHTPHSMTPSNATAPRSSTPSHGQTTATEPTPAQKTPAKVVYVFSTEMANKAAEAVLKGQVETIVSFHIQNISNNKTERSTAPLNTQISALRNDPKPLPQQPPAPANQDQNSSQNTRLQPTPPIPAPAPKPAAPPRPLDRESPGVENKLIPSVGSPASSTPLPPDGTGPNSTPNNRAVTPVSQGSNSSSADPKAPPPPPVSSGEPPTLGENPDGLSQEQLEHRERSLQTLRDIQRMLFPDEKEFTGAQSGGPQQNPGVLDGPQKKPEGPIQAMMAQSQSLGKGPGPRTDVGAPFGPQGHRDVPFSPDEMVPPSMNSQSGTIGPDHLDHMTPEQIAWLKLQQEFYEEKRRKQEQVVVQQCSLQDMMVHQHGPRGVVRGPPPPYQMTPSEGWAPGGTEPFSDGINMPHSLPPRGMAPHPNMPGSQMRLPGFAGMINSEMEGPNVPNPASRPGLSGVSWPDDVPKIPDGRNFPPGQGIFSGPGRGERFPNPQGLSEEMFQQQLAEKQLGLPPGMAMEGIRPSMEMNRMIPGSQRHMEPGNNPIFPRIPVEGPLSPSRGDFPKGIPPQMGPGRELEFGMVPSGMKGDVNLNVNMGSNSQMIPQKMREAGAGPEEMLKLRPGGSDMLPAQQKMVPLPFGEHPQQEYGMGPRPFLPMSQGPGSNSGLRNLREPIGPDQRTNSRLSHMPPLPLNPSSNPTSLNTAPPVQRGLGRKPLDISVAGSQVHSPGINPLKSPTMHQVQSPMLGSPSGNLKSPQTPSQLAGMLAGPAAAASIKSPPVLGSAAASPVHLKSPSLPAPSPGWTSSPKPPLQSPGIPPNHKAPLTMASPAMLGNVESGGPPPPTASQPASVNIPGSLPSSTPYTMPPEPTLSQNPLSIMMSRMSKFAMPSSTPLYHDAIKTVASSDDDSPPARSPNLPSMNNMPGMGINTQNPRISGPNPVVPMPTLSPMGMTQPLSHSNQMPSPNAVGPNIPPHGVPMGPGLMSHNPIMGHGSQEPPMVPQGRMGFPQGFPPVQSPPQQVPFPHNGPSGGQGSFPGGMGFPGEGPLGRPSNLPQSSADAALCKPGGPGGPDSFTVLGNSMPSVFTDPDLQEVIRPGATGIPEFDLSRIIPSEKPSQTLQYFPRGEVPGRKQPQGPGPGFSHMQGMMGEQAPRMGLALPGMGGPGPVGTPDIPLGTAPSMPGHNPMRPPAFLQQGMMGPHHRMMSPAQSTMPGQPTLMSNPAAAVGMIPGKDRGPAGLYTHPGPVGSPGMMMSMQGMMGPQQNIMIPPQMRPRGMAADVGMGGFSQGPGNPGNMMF
Briefly: Inhibition of full length beta-catenin (1 to 781 residues) (unknown origin) expressed in Escherichia coli BL21 (DE3)-N-terminal biotinylated human BCL9 (350 to 375 residues) protein-protein interaction incubated for 1 hr by Alphascreen assay. Background: Alpha assays give light when donor and acceptor beads are brought close together.

Data set [2] deals with SW480. The data set can be described thus: Antiproliferative activity against human SW480 cells assessed as inhibition of cell growth measured by MTS method. In kind it is functional, cell-based.
Data set [3] relates to MCF-10A. The data set can be described thus: Antiproliferative activity against human MCF-10A cells assessed as inhibition of cell growth measured by MTS method. In kind it is functional, cell-based. A general note: Formazan colour is commonly taken as a measure of viable cells.
Data set [4] relates to MDA-MB-468. The data set can be described thus: Antiproliferative activity against human MDA-MB-468 cells assessed as inhibition of cell growth measured by MTS method. In kind it is functional, cell-based.
A short description of data set [5]: Inhibition of Wnt/beta-catenin transactivation signalling in human SW480 cells by TOPFlash reporter gene assay. It counts as cell-based. In general terms: Reporter assays use an easily measured gene product as a stand-in for the process of interest.
The test system of data set [6] is HCT-116. Briefly: Antiproliferative activity against human HCT-116 cells assessed as inhibition of cell growth measured by MTS method. In kind it is functional, cell-based.
Data set [7] has as its system MDA-MB-231. Briefly: Antiproliferative activity against human MDA-MB-231 cells assessed as inhibition of cell growth measured by MTS method. In kind it is functional, cell-based.
The target in data set [8] is CYP2D6 (Homo sapiens, UniProt P10635). Briefly: Inhibition of CYP2D6 in human liver microsomes using bufuralol as substrate at 10 uM in presence of NADPH incubated for 10 mins. It counts as ADME, Microsome. As to conditions: probe bufuralol.
The target in data set [9] is CYP3A4 (Homo sapiens, UniProt P08684). Briefly: Inhibition of CYP3A4 in human liver microsomes using Midazolam as substrate at 10 uM in presence of NADPH incubated for 10 mins. It counts as ADME, Microsome. To be noted: probe midazolam.
Data set [10] addresses T2, CYP1A2 (Homo sapiens, UniProt P05177).
T2 sequence (P05177 whole entry): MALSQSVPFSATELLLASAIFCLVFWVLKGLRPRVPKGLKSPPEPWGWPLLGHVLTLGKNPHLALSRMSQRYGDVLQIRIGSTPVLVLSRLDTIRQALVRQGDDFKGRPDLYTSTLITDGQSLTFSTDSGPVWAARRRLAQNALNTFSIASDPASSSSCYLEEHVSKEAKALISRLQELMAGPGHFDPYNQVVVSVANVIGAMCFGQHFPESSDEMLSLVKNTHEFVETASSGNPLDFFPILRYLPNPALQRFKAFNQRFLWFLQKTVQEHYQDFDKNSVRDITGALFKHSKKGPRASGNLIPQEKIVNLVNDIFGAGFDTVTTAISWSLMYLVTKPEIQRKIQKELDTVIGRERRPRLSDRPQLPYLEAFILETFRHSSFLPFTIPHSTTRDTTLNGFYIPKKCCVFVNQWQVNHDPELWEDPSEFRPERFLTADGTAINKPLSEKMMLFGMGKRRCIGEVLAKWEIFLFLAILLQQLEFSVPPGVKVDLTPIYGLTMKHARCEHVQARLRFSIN
Briefly: Inhibition of CYP1A2 in human liver microsomes using phenacetin at 10 uM in presence of NADPH incubated for 10 mins. In kind it is ADME, Microsome. To be noted: probe phenacetin.

Data set [11] addresses CYP2C9 (Homo sapiens, UniProt P11712). Briefly: Inhibition of CYP2C9 in human liver microsomes using tolbutamide as substrate at 10 uM in presence of NADPH incubated for 10 mins. In kind it is ADME, Microsome. As to conditions: probe tolbutamide.

In ChEMBL document CHEMBL5154919, “New ZW4864 Derivatives as Small-Molecule Inhibitors for the β-Catenin/BCL9 Protein-Protein Interaction” (ACS Med Chem Lett, 2022) one finds IC50, Ki and inhibition data, which are given here for 19 compounds.

CYP3A4, sequence (P08684 whole entry): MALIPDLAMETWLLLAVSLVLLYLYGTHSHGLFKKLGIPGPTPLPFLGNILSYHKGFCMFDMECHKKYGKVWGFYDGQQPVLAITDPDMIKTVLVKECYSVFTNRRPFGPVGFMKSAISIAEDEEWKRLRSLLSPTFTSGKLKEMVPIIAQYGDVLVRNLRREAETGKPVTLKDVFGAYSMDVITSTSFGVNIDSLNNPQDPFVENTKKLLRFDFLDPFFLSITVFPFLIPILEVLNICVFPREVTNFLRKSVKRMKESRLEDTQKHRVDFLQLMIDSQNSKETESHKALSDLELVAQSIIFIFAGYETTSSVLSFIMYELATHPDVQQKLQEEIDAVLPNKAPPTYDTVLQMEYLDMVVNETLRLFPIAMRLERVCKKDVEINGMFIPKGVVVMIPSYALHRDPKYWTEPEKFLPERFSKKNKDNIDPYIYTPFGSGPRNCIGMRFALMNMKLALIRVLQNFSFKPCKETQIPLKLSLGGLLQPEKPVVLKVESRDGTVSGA
CYP2C9, sequence (P11712 whole entry): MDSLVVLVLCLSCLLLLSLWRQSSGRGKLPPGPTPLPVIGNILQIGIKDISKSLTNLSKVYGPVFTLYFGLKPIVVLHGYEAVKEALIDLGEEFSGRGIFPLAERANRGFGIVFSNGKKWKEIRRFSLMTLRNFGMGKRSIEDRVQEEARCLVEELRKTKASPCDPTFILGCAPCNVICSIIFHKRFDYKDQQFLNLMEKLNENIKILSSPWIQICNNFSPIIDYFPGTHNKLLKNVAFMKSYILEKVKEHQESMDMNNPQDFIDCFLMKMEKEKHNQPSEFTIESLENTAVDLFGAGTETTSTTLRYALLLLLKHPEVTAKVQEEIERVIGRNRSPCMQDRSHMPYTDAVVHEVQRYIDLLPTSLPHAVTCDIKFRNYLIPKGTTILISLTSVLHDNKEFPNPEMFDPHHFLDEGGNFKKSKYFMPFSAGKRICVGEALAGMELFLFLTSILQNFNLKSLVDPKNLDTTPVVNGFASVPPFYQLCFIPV
CYP2D6, sequence (P10635 whole entry): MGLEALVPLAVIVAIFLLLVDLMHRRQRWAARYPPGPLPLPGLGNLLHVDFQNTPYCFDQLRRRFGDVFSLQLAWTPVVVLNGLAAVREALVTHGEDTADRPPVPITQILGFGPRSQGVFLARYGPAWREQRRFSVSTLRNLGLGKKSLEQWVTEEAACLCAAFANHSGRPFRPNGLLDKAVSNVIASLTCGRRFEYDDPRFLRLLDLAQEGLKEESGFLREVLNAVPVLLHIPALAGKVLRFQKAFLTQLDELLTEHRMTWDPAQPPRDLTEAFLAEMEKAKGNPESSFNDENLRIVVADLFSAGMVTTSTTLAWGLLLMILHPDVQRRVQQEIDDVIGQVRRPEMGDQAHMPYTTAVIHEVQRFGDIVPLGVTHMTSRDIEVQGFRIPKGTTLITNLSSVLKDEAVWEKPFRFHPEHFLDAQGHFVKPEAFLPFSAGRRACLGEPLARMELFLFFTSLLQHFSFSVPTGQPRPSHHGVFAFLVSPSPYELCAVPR

In the case of `O=C([C@@H]1CCCN(c2cccc(OC3(C(=O)N4CCNCC4)CC3)c2)C1)N(Cc1ccc(-c2cn[nH]c2)cc1)C1CC1`, in [1], inhibition was half-maximal at 29 µM (IC50) and the inhibition constant Ki is 24 µM.
For `CC(C)(Oc1cccc(N2CCC[C@@H](C(=O)N(Cc3ccc(-c4cccc5[nH]ncc45)cc3)C3CC3)C2)c1)C(=O)N1CCNCC1` the same measures were 2.5 µM and 2 µM.
For `O=C(C(Oc1cccc(N2CCC[C@@H](C(=O)N(Cc3ccc(-c4cn[nH]c4)cc3)C3CC3)C2)c1)c1ccccc1)N1CCNCC1` (some centres not stated) the same measures were 23 µM and 21 µM.
For `CC(C)(Oc1cccc(N2CCC[C@@H](C(=O)N(Cc3ccc(-c4cn[nH]c4)cc3)C3CCCC3)C2)c1)C(=O)N1CCNCC1` the same measures were 7.6 µM and 6.8 µM.
On to `CC(C)(Oc1cccc(N2CCC[C@@H](C(=O)N(Cc3ccc(-c4cn[nH]c4)cc3)C3CC3)C2)c1)C(=O)N1CC2(CNC2)C1`, for which, in data set [1], the IC50 amounted to 44 µM and affinity was put at a Ki of 37 µM.
In data set [1], `CC(C)N(Cc1ccc(-c2cn[nH]c2)cc1)C(=O)[C@@H]1CCCN(c2cccc(OC(C)(C)C(=O)N3CCNCC3)c2)C1` gave an IC50 of 8.9 µM and an inhibitory constant (Ki) of 8 µM.
In [1], `CC(C)(Oc1cccc(N2CCC[C@@H](C(=O)N(Cc3ccc(-c4cn[nH]c4)cc3)C3CC3)C2)c1)C(=O)N1CC2(CCNCC2)C1` registered an IC50 of 38 µM and an inhibitory constant (Ki) of 31 µM.
In data set [1], `CN(Cc1ccc(-c2cn[nH]c2)cc1)C(=O)[C@@H]1CCCN(c2cccc(OC(C)(C)C(=O)N3CCNCC3)c2)C1` yielded an IC50 of 28 µM and an inhibitory constant (Ki) of 25 µM.
In data set [1], `CC(C)(Oc1cccc(N2CCC[C@@H](C(=O)N(Cc3ccc(-c4cn[nH]c4)cc3)C3CC3)C2)c1)C(=O)N1C[C@H]2CNC[C@H]2C1` had a half-maximal inhibitory concentration (IC50) of 8.3 µM and an inhibition constant (Ki) of 6.8 µM.
For `CC(C)(Oc1cccc(N2CCC[C@@H](C(=O)N(Cc3ccc(-c4cn[nH]c4)cc3)C3CC3)C2)c1)C(=O)N1CCC2(CNC2)C1` the same measures were 20 µM and 16 µM.
Regarding `CC(C)(Oc1cccc(N2CCC[C@@H](C(=O)N(Cc3ccc(-c4c[nH]c5ncccc45)cc3)C3CC3)C2)c1)C(=O)N1CCNCC1`, the half-maximal inhibitory concentration (IC50) in [2] came to 9.7 µM; in [3], 24 µM; in data set [4], 5 µM; in [5] it was 11 µM; in data set [6], 8.1 µM; in data set [7], 4.6 µM. Half-maximal inhibition in data set [1] (IC50) was put at 0.96 µM. The same compound gave an inhibition constant Ki in [1] of 0.85 µM.
In the case of `CC(C)(Oc1cccc(N2CCC[C@@H](C(=O)N(Cc3ccc(-c4cn[nH]c4)cc3)C3CC3)C2)c1)C(=O)N1CCNCC1`, the inhibition at 10 min, 10 µM in data set [8] was 73%; in [9], 96%; in data set [10], 17%; in [11], 83%.
Regarding `CC(C)(Oc1cccc(N2CCC[C@@H](C(=O)NCc3ccc(-c4cn[nH]c4)cc3)C2)c1)C(=O)N1CCNCC1`, in [1], half-maximal inhibition (IC50) required 81 µM and the inhibition constant Ki was 73 µM.
`CC(C)(Oc1cccc(N2CCC[C@@H](C(=O)N(Cc3ccc(-c4cn[nH]c4)cc3)C3CC3)C2)c1)C(=O)N1CCC2(CCNC2)C1` (some centres not stated): in [1], the half-inhibitory concentration (IC50) is 12 µM and the Ki stood at 9.8 µM.
Consider `CC(C)(Oc1cccc(N2CCC[C@@H](C(=O)N(Cc3ccc(-c4cn[nH]c4)cc3)CC3CC3)C2)c1)C(=O)N1CCNCC1`, for which, in data set [1], half-maximal inhibition (IC50) required 18 µM and the affinity corresponds to a Ki of 15 µM.
For `CC(C)(Oc1cccc(N2CCC[C@@H](C(=O)N(Cc3ccc(-c4cn[nH]c4)cc3)C3CCC3)C2)c1)C(=O)N1CCNCC1` the same measures were 12 µM and 11 µM.
On the same counts, the results for `O=C([C@@H]1CCCN(c2cccc(OC3(C(=O)N4CCNCC4)CCCC3)c2)C1)N(Cc1ccc(-c2cn[nH]c2)cc1)C1CC1` are 43 µM and 39 µM.
`CC(C)(Oc1cccc(N2CCC[C@@H](C(=O)N(Cc3ccc(-c4ccnc5[nH]ccc45)cc3)C3CC3)C2)c1)C(=O)N1CCNCC1`: the 50% inhibitory concentration (IC50) in [2] is 10 µM; in [3], 29 µM; in data set [4], 5.5 µM; in data set [5] it was 15 µM; in data set [6] it was 7.7 µM; in [7], 6.5 µM. In data set [1], the 50% inhibitory concentration (IC50) was 2.2 µM. Further, the Ki in [1] is 1.8 µM.
In data set [1], `CC(C)(Oc1cccc(N2CCC[C@@H](C(=O)N(Cc3ccc(-c4c[nH]c5ccccc45)cc3)C3CC3)C2)c1)C(=O)N1CCNCC1` showed an IC50 of 1.4 µM and an inhibition constant Ki of 1.2 µM.

The term IC50 denotes the concentration that inhibits the measured activity by half. In general, Ki refers to a dissociation constant, usually derived from enzyme kinetics or from competition with a known ligand. A high value points to weaker binding. As usually defined, the inhibition is how much of the control response was suppressed.
